Experimental findings from article PMC6154344, “Hibiscus sabdariffa L. and Its Bioactive Constituents Exhibit Antiviral Activity against HSV-2 and Anti-Enzymatic Properties against Urease by an ESI-MS Based Assay” (Molecules : A Journal of Synthetic Chemistry and Natural …, 2017) are described below.

pIC50: −log10 of the molar value.

The test deals with Urease (Type III, from Canavalia ensiformis) (Canavalia ensiformis, UniProt P07374). Description: ESI-MS (MRM) assay of urea depletion by purified urease, […] min pre-incubation with inhibitor. The test is classed as biochemical.
Chain of Urease (Type III, from Canavalia ensiformis) (P07374 whole entry): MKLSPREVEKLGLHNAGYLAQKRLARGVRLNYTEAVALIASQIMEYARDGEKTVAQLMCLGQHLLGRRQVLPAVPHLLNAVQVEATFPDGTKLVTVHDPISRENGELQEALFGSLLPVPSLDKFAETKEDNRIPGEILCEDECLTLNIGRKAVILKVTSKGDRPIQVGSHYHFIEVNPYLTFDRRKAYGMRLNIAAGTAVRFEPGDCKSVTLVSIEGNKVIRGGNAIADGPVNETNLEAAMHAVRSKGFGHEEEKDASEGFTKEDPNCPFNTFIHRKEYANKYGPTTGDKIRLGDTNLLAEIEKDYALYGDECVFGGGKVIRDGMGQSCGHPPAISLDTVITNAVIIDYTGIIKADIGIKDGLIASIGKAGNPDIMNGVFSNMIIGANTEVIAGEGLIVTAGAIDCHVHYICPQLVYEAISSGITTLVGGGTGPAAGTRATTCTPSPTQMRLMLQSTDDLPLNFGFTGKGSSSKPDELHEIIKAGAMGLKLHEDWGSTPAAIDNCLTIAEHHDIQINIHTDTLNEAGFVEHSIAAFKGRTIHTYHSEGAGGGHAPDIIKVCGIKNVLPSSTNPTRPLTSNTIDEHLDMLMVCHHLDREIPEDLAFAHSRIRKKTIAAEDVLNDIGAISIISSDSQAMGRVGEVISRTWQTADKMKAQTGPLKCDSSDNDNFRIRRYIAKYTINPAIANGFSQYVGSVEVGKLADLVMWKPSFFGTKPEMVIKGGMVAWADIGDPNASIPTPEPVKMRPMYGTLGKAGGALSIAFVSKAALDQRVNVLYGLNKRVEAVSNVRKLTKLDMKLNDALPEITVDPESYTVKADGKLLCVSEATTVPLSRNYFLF

For the molecule `CC(=O)NO` [AHA, acetohydroxamic acid], the pIC50 (as a rule, the negative decadic logarithm of the IC50, by convention in mol/L) is 5.37.
